Key:
GTR2/NPF2.11 = target: T1, GTR2/NPF2.11 (Arabidopsis thaliana, UniProt Q9LV10); assay: uptake into Xenopus oocytes, UPLC/TOFMS; assay type: cell-based; conditions: pH 5, 24 h uptake, kulori-based buffer
T1 construct: forward primer starts ATGGAGAGAAAGCCTCTTG
T1 sequence (Q9LV10 1-616): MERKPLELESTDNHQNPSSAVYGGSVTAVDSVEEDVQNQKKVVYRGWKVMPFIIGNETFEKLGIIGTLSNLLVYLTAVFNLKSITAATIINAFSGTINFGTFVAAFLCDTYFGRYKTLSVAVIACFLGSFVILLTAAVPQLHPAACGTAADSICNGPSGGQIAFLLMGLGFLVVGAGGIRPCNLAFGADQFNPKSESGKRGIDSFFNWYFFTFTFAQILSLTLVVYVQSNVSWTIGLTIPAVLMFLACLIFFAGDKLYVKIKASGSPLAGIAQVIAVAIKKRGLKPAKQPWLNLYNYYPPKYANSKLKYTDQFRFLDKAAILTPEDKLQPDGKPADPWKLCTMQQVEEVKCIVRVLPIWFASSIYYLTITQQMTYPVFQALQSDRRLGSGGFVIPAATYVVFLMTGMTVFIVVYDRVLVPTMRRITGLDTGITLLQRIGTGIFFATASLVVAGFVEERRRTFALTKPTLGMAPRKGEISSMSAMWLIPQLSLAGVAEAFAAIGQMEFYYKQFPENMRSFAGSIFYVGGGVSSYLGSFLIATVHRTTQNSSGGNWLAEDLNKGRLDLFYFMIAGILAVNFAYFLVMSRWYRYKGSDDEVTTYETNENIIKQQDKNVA

[1] = substrate: C=C1C[C@]23C[C@@]1(O)CC[C@H]2[C@@]12C=C[C@H](O)[C@@](C)(C(=O)O1)[C@H]2[C@@H]3C(=O)O; assay: uptake into Xenopus oocytes, UPLC/TOFMS; assay type: cell-based, Arabidopsis thaliana; conditions: pH 5.0, 17 °C, 24 h uptake, kulori-based buffer, 1-2,000 μM GA3

Molecule: C=C1C[C@]23C[C@@]1(O)CC[C@H]2[C@@]12C=C[C@H](O)[C@@](C)(C(=O)O1)[C@H]2[C@@H]3C(=O)O [GA3]
- uptake into Xenopus oocytes, UPLC/TOFMS (GTR2/NPF2.11): GTR2, a close homologue of GTR1, also transported GA3 into oocytes

B1: GTR1/NPF2.10 (Arabidopsis thaliana) (protein)
chain: MKSRVILNHRDRRDKNHNNNNTNHYTQVDTMERKPLEVEPSTTTTNTDVVDSFEEEQRKIVYRGWKVMPFIIGNETFEKLGIIGTLSNLLVYLTSVFNLKSYTAATIINAFSGTINFGTFIAAFLCDTYFGRYKTLSVAVIACFLGSFVILLTAAIPSLHPVACGNKISCEGPSVGQILFLLMGLGFLVVGAGGIRPCNLAFGADQFNPKSESGKKGINSFFNWYFFTFTFAQIISLTAVVYIQSNVSWTIGLIIPVALMFLACVIFFAGDRLYVKVKASGSPLAGIARVIAAAIKKRGLKPVKQPWVNLYNHIPSNYANTTLKYTDQFRFLDKAAIMTPEEKLNSDGTASDPWKLCTLQQVEEVKCIVRVIPIWFASTIYYLAITIQMTYPVFQALQSDRRLGSGGFRIPAATYVVFLMTGMTVFIIFYDRVLVPSLRRVTGLETGISLLQRIGAGFTFAIMSLLVSGFIEERRRNFALTKPTLGMAPRTGEISSMSALWLIPQLTLAGIAEAFAAIGQMEFYYKQFPENMKSFAGSIFYVGAGVSSYLASFLISTVHRTTAHSPSGNWLAEDLNKAKLDYFYFMLTGLMVVNMAYFLLMARWYRYKGGNDEDITEIETNEEETKQQQLQDKNSV
- Km [1]: 301.25 ± 225.46 µM
